Reference: patent publication US7786113B2, “Heterocyclic carbamate derivatives, their manufacture and use as pharmaceutical agents” (Hoffman-La Roche Inc., priority 2004, dated 2010)

Assays:
Lck (p56^lck) = molecular target: T1, Lck (p56^lck) (Homo sapiens, UniProt P06239); experiment: SRC-Inhibitor-Assay (time-resolved fluorescence kinase assay), Lck; type: biochemical; details: ATP 5 μM, peptide 10 μM, enzyme 2.5 U/ml, pH 7.3
T1 construct: purchased UBI, Upstate Biotech, Inc
Excerpt: (§1) The activity of the compounds according to this invention as inhibitors for the src-family tyrosine kinases was shown by using the following assay.
(§2) ATP, Tween™ 20, 4-(2-hydroxyethyl)-1-piperazineethanesulfonic acid (HEPES) were purchased from Roche Molecular Biochemicals, MgCl2 and MnCl2 were purchased from Merck Eurolab, Tris(2-carboxyethyl)phosphine hydrochloride (TCEP) was purchased from Pierce, 384 Well low volume fluorescence plates was purchased from Falcon.
(§3) At first the enzyme is pre-incubated for 15 min. at 15° C. in aqueous solution with corresponding amounts of inhibitors according to this invention. Then the phosphorylation reaction is started by adding a reaction mixture, containing ATP, Peptide and PT66, and subsequent shaking. The proceeding of this reaction is immediately monitored using time resolved fluorescence spectroscopy in a suitable well plate reader.
(§4) The IC50-values can be obtained from the reaction rates by using a non-linear curve fit (XLfit software (ID Business Solution Ltd., Guilford, Surrey, UK))

Src (p60^c-src) = molecular target: T2, Src (p60^c-src) (Homo sapiens, UniProt P12931); experiment: SRC-Inhibitor-Assay (time-resolved fluorescence kinase assay), Src; type: biochemical; details: ATP 5 μM, peptide 10 μM, enzyme 2.5 U/ml, pH 7.3
T2 construct: purchased UBI, Upstate Biotech, Inc
T2 sequence (P12931 whole entry): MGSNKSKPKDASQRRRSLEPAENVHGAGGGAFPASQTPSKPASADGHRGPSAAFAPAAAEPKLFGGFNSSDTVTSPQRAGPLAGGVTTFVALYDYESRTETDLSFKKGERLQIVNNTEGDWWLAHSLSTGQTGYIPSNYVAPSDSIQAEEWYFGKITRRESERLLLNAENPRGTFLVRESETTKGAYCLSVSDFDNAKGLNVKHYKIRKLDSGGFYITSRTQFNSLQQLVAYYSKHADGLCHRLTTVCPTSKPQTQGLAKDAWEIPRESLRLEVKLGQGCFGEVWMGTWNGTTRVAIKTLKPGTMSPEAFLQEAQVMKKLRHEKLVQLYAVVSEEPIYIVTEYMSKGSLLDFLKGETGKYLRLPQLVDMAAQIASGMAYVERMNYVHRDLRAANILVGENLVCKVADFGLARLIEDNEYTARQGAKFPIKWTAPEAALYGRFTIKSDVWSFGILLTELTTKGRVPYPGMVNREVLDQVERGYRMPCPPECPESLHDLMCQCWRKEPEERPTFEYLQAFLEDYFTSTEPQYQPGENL
Excerpt: as §1, §2, §3, §4

T1 sequence (P06239 whole entry): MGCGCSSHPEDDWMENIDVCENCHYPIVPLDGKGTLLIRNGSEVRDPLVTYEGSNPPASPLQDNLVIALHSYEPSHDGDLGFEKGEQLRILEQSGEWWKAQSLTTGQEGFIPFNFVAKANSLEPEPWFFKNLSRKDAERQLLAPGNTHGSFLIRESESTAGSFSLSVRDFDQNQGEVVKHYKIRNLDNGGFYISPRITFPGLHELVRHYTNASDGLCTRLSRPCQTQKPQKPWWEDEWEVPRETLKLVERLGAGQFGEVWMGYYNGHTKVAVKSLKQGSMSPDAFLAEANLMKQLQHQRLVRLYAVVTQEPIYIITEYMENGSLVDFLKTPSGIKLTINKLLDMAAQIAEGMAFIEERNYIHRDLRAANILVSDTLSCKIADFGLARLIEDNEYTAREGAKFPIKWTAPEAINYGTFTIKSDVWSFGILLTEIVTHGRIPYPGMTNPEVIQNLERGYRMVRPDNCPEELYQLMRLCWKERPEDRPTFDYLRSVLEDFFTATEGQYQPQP

| Structure (SMILES) | IC50 (Lck (p56^lck)) [nM] | IC50 (Src (p60^c-src)) [nM] |
| --- | --- | --- |
| CC(OC(=O)Nc1cnc2[nH]c(-c3ccccc3)nc2c1)C(F)(F)F (stereo not shown) [Example 1-11, (2-Phenyl-3H-imidazo[4,5-b]pyridin-6-yl)-carbamic acid 2,2,2-trifluoro-1-methyl-ethyl ester] | 5000 to 10000 | 228 |
| CC(C)(C)COC(=O)Nc1cnc2[nH]c(-c3ccccc3)nc2c1 [Example 1-12, (2-Phenyl-3H-imidazo[4,5-b]pyridin-6-yl)-carbamic acid 2,2-dimethyl-propyl ester] | 2000 to 9000 | 500 to 1500 |
| CC(C)C(C)OC(=O)Nc1cnc2[nH]c(-c3ccccc3)nc2c1 (stereo not shown) [Example 1-19, (2-Phenyl-3H-imidazo[4,5-b]pyridin-6-yl)-carbamic acid 1,2-dimethyl-propyl ester] | 2000 to 9000 | 500 to 1500 |
| CC(C)OC(=O)Nc1cnc2[nH]c(-c3cccc(CCO)c3)nc2c1 [Example 2-9, {2-[3-(2-Hydroxy-ethyl)-phenyl]-3H-imidazo[4,5-b]pyridin-6-yl}-carbamic acid isopropyl ester] | 100 to 9000 | 10 to 500 |
| Cc1cc(-c2nc3cc(NC(=O)OC(C)C)cnc3[nH]2)ccn1 [Example 3-1, [2-(2-Methyl-pyridin-4-yl)-3H-imidazo[4,5-b]pyridin-6-yl]-carbamic acid isopropyl ester] | 100 to 9000 | 10 to 500 |
| CC(C)OC(=O)Nc1cnc2[nH]c(-c3ccc([N+](=O)[O-])cc3)nc2c1 [Example 3-4, [2-(4-Nitro-phenyl)-3H-imidazo[4,5-b]pyridin-6-yl]-carbamic acid isopropyl ester] | 100 to 9000 | 10 to 500 |
| CC(C)OC(=O)Nc1cnc2[nH]c(-c3ccc(N4CCOCC4)nc3)nc2c1 [Example 3-7, [2-(6-Morpholin-4-yl-pyridin-3-yl)-3H-imidazo[4,5-b]pyridin-6-yl]-carbamic acid isopropyl ester] | 100 to 9000 | 10 to 500 |
| CC(C)OC(=O)Nc1cnc2[nH]c(-c3cccc(N)c3)nc2c1 [Example 5-1, [2-(3-Amino-phenyl)-3H-imidazo[4,5-b]pyridin-6-yl]-carbamic acid isopropyl ester] | 100 to 9000 | 10 to 500 |
| CC(C)OC(=O)Nc1cnc2[nH]c(-c3ccc(N)cc3)nc2c1 [Example 5-2, [2-(4-Amino-phenyl)-3H-imidazo[4,5-b]pyridin-6-yl]-carbamic acid isopropyl ester] | 100 to 9000 | 10 to 500 |
| CC(C)OC(=O)Nc1cnc2[nH]c(-c3cccc(NS(C)(=O)=O)c3)nc2c1 [Example 7-1, [2-(3-Methanesulfonylamino-phenyl)-3H-imidazo[4,5-b]pyridin-6-yl]-carbamic acid isopropyl ester] | 100 to 9000 | 10 to 500 |
| CC(C)OC(=O)Nc1cnc2[nH]c(-c3cccc([S+](C)[O-])c3)nc2c1 (stereo not shown) [Example 8-1, [2-(3-Methylsulfinyl-phenyl)-3H-imidazo[4,5-b]pyridin-6-yl]-carbamic acid isopropyl ester] | 100 to 9000 | 10 to 500 |
| CC(C)OC(=O)Nc1cnc2[nH]c(-c3cccc(S(C)(=O)=O)c3)nc2c1 [Example 8-2, [2-(3-Methylsulfonyl-phenyl)-3H-imidazo[4,5-b]pyridin-6-yl]-carbamic acid isopropyl ester] | 100 to 9000 | 10 to 500 |
| CC(C)OC(=O)Nc1cnc2[nH]c(-c3ccc([S+](C)[O-])cc3)nc2c1 (stereo not shown) [Example 8-4, [2-(4-Methanesulfinyl-phenyl)-3H-imidazo[4,5-b]pyridin-6-yl]-carbamic acid isopropyl ester] | 100 to 9000 | 10 to 500 |
| CC(C)OC(=O)Nc1cnc2[nH]c(-c3ccccc3)cc2c1 [Example 9-1, (2-Phenyl-1H-pyrrolo[2,3-b]pyridin-5-yl)-carbamic acid isopropyl ester] | 100 to 9000 | 10 to 500 |
| CCOC(=O)Nc1cnc2[nH]c(-c3ccc(OCCOC)cc3)cc2c1 [Example 9-4, {2-[4-(2-Methoxy-ethoxy)-phenyl]-1H-pyrrolo[2,3-b]pyridin-5-yl}-carbamic acid ethyl ester] | 100 to 9000 | 10 to 500 |
| C=CCOC(=O)Nc1cnc2[nH]c(-c3ccc(OCCOC)cc3)cc2c1 [Example 9-5, {2-[4-(2-Methoxy-ethoxy)-phenyl]-1H-pyrrolo[2,3-b]pyridin-5-yl}-carbamic acid allyl ester] | 100 to 9000 | 10 to 500 |
| O=C(Nc1cnc2[nH]c(-c3ccccc3)cc2c1)OCc1ccccc1 [Example 9-8, (2-Phenyl-1H-pyrrolo[2,3-b]pyridin-5-yl)-carbamic acid benzyl ester] | 100 to 9000 | 10 to 500 |
| COCCOc1ccc(-c2cc3cc(NC(=O)OC(C)C)cnc3[nH]2)cc1 [Example 9-17, {2-[4-(2-Methoxy-ethoxy)-phenyl]-1H-pyrrolo[2,3-b]pyridin-5-yl}-carbamic acid isopropyl ester] | 100 to 9000 | 10 to 500 |
| COCCOc1ccc(-c2cc3cc(NC(=O)OCC(C)C)cnc3[nH]2)cc1 [Example 9-19, {2-[4-(2-Methoxy-ethoxy)-phenyl]-1H-pyrrolo[2,3-b]pyridin-5-yl}-carbamic acid isobutyl ester] | 100 to 9000 | 10 to 500 |
| CC(=O)Nc1cccc(-c2cc3cc(NC(=O)OC(C)C)cnc3[nH]2)c1 [Example 9-20, [2-(3-Acetylamino-phenyl)-1H-pyrrolo[2,3-b]pyridin-5-yl]-carbamic acid isopropyl ester] | 100 to 9000 | 10 to 500 |

Further lines, results first:

| IC50 (Lck (p56^lck)) [nM] | IC50 (Src (p60^c-src)) [nM] | Structure (SMILES) |
| --- | --- | --- |
| 100 to 9000 | 10 to 500 | C=CC(C)OC(=O)Nc1cnc2[nH]c(-c3ccccc3)nc2c1 (stereo not shown) [Example 1-1, (2-Phenyl-3H-imidazo[4,5-b]pyridin-6-yl)-carbamic acid 1-methyl-allyl ester] |
| 100 to 9000 | 10 to 500 | CC(C)OC(=O)Nc1cnc2nc(-c3ccccc3)[nH]c2c1 [Example 1-2, (2-Phenyl-1H-imidazo[4,5-b]pyridin-6-yl)-carbamic acid isopropyl ester] |
| 100 to 9000 | 10 to 500 | CCC(C)OC(=O)Nc1cnc2[nH]c(-c3ccccc3)nc2c1 (stereo not shown) [Example 1-9, (2-Phenyl-3H-imidazo[4,5-b]pyridin-6-yl)-carbamic acid sec-butyl ester] |
| 100 to 9000 | 10 to 500 | CC(OC(=O)Nc1cnc2[nH]c(-c3ccccc3)nc2c1)c1ccccc1 (stereo not shown) [Example 1-13, (2-Phenyl-3H-imidazo[4,5-b]pyridin-6-yl)-carbamic acid 1-phenyl-ethyl ester] |
| 100 to 9000 | 10 to 500 | CCCOC(=O)Nc1cnc2nc(-c3ccccc3)[nH]c2c1 [Example 1-14, (2-Phenyl-1H-imidazo[4,5-b]pyridin-6-yl)-carbamic acid propyl ester] |
| 100 to 9000 | 10 to 500 | C#CC(C)OC(=O)Nc1cnc2[nH]c(-c3ccccc3)nc2c1 (stereo not shown) [Example 1-15, (2-Phenyl-3H-imidazo[4,5-b]pyridin-6-yl)-carbamic acid 1-methyl-prop-2-ynyl ester] |
| 100 to 9000 | 10 to 500 | CC#CC(C)OC(=O)Nc1cnc2[nH]c(-c3ccccc3)nc2c1 (stereo not shown) [Example 1-16, (2-Phenyl-3H-imidazo[4,5-b]pyridin-6-yl)-carbamic acid 1-methyl-but-2-ynyl ester] |
| 100 to 9000 | 10 to 500 | O=C(Nc1cnc2[nH]c(-c3ccccc3)nc2c1)OC1CCC1 [Example 1-17, (2-Phenyl-3H-imidazo[4,5-b]pyridin-6-yl)-carbamic acid cyclobutyl ester] |
| 100 to 9000 | 10 to 500 | C=C(C)C(C)OC(=O)Nc1cnc2[nH]c(-c3ccccc3)nc2c1 (stereo not shown) [Example 1-22, (2-Phenyl-3H-imidazo[4,5-b]pyridin-6-yl)-carbamic acid 1,2-dimethyl-allyl ester] |
| 100 to 9000 | 10 to 500 | CCN(CC)CCOc1ccc(-c2nc3cc(NC(=O)OC(C)C)cnc3[nH]2)cc1 [Example 2-1, {2-[4-(2-Diethylamino-ethoxy)-phenyl]-3H-imidazo[4,5-b]pyridin-6-yl}-carbamic acid isopropyl ester] |
| 100 to 9000 | 10 to 500 | COCCOc1ccc(-c2nc3cc(NC(=O)OC(C)C)cnc3[nH]2)cc1 [Example 2-3, {2-[4-(2-Methoxy-ethoxy)-phenyl]-3H-imidazo[4,5-b]pyridin-6-yl}-carbamic acid isopropyl ester] |
| 1340 | 185 | CC(C)OC(=O)Nc1cnc2[nH]c(-c3cccc([N+](=O)[O-])c3)nc2c1 [Example 2-4, [2-(3-Nitro-phenyl)-3H-imidazo[4,5-b]pyridin-6-yl]-carbamic acid isopropyl ester] |
| 100 to 9000 | 10 to 500 | CC(C)OC(=O)Nc1cnc2[nH]c(-c3ccc(N4CCOCC4)cc3)nc2c1 [Example 2-5, [2-(4-Morpholin-4-yl-phenyl)-3H-imidazo[4,5-b]pyridin-6-yl]-carbamic acid isopropyl ester] |
| 100 to 9000 | 10 to 500 | CC(C)OC(=O)Nc1cnc2[nH]c(-c3ccc(N4CCN(C)CC4)cc3)nc2c1 [Example 2-8, {2-[4-(4-Methyl-piperazin-1-yl)-phenyl]-3H-imidazo[4,5-b]pyridin-6-yl}-carbamic acid isopropyl ester] |
| 791 | 39 | CC(=O)Nc1cccc(-c2nc3cc(NC(=O)OC(C)C)cnc3[nH]2)c1 [Example 6-1, [2-(3-Acetylamino-phenyl)-3H-imidazo[4,5-b]pyridin-6-yl]-carbamic acid isopropyl ester] |
